# Measured values: patent US20180235912A1, “PHARMACEUTICAL COMPOSITION FOR PREVENTING OR TREATING AUTOIMMUNE DISEASES COMPRISING THIOUREA DERIVATIVE” (SEOUL NATIONAL UNIVERSITY R & DB FOUNDATION, priority 2015, published 2018)
# Experiments:
# [1] = test system: type II collagen-induced arthritis (CIA); experiment: Type II collagen-induced arthritis (CIA) animal model; type: in vivo, mouse; settings: DBA male mice
# Procedure: 6-week-old DBA male mice were inoculated with bovine CII (Chondrex Inc.) emulsified in CFA (Chondrex Inc.), and re-inoculated after 15 days to induce rheumatoid arthritis. After the first administration, JC1-40 dissolved in 0.5% carboxymethyl cellulose (CMC) was continuously orally administered three times a week to the mice at a dose of 10 mg/kg. A 0.5% CMC vehicle and 5 mg/kg of Enbrel as the positive control were administered to the other groups in the same manner. The ratio of the population of the mice developing an arthritic disease was calculated as incidence, and the arthritic tissues were pathophysiologically examined to calculate a degree of progression of the disease as a score and compare conditions of the rheumatoid arthritis disease between the groups. The clinical scores were evaluated using a clinical scoring system which scores the swelling and redness in feet or tail regions by observing arthritis lesions of mice with the naked eye every day to check a degree of progression of inflammatory diseases in the joints.
# [2] = test system: peritoneal macrophages; experiment: Transcription of inflammatory genes in primarily cultured intraperitoneal macrophages, real-time PCR; type: cell-based; settings: mouse intraperitoneal macrophages, 10 ng/mL LPS, 20 μM, 24 hours
# Procedure: (§1) Peritoneal macrophages of 7 to 8-week-old C57BL/6 male mice were isolated, seeded in a 24-well dish at a density of 1×10^6 cells/well, and then cultured for 4 hours in an RPMI1640 medium supplemented with 10% fetal bovine serum (FBS). A peritoneal macrophage culture broth was treated with each of 10 ng/mL of LPS and 20 μM JC1-40 or JC1-42, as indicated herein, for 24 hours. In this case, the peritoneal macrophages were kept at 37° C. in a thermo-hygrostat chamber in which 5% CO2 and 95% air were maintained.
# First, mRNA expression levels of the inflammatory markers, such as TNF-α, NOS2, IL-1β, and IL-6, which induce rheumatoid arthritis, were measured using a real-time PCR (i.e., real-time reverse transcriptase-polymerase chain reaction; quantitative polymerase chain reaction) assay. As a result, it can be seen that the mRNA levels of TNF-α, NOS2, IL-1β and IL-6, which are involved in the induction of inflammation, in the intraperitoneal macrophages were reduced when the cells were treated with JC1-40 or JC1-42, as shown in FIG. 2.
# [3] = test system: EL4 cell line; experiment: Foxp3 expression in T cell line, immunostaining and confocal microscopy; type: cell-based, mouse; settings: EL4, 20 μM, Th17 differentiation conditions, confocal microscopy
# [4] = test system: osteoclast precursor differentiated from human PBMCs; experiment: Osteoclast differentiation-related factor expression in osteoclast precursor from PBMCs, real-time PCR; type: cell-based; settings: M-CSF 25 ng/mL, RANKL 30 ng/mL, 10, 20, 40 μM
# Procedure: PBMCs of a healthy human were isolated, stimulated with M-CSF (25 ng/mL) for 3 days to induce differentiation into an osteoclast precursor. After 3 days, a medium was replaced with a fresh one, and the cells were stimulated with varying concentrations of M-CSF (25 ng/mL), RANKL (30 ng/mL), and JC1-40 (10, 20, 40 μM), and cultured for 3 days. After the medium was replaced every 3 days, the same stimulus was applied to the cells while a differentiation state of the cells was observed.
# RNA was isolated from the differentiated cells, and synthesized into cDNA. Thereafter, a change in mRNA expression levels of the osteoclast differentiation-related factors, Cathepsin K and TRAP, was analyzed using real-time PCR.
# [5] = test system: peritoneal macrophages; experiment: Transcription of M2 anti-inflammatory genes in primarily cultured intraperitoneal macrophages, real-time PCR; type: cell-based; settings: mouse intraperitoneal macrophages, 20 ng/mL IL-4, 20 μM, 24 hours
# Procedure: as §1, with “of 20” for “of 10”, “of IL-4” for “of LPS”, “hours. Thereafter, mRNA expression levels of the M2 anti-inflammatory markers, such as IL-10, Arg1, Retnla, and CD206, […], were measured using a real-time PCR (i.e., real-time reverse transcriptase-polymerase chain reaction; quantitative polymerase chain reaction) assay.” for “hours.”
# [6] = test system: peritoneal macrophages; experiment: M1 differentiation of intraperitoneal macrophages, PE-CD80 flow cytometry; type: cell-based; settings: mouse intraperitoneal macrophages, 10 ng/mL LPS, 20 μM, 24 hours
# Procedure: as §1
# Further, a PE-CD80 antibody (eBioscience), which is a M1 marker for recognizing a change of M1 cells, was incubated in these cells for 30 minutes, and then subjected to flow cytometry. As a result, it was confirmed that the M1 differentiation was suppressed when the macrophages were treated with JC1-40, as shown in FIG. 3.
# [7] = test system: Raw 264.7 macrophage cell line; experiment: Transcription of inflammatory genes in LPS-treated macrophage cell line, real-time PCR; type: cell-based, mouse; settings: Raw 264.7, 50 ng/mL LPS, 20 μM, 24 hours
# Procedure: A mouse macrophage cell line Raw 264.7 (ATCC TIB-71) was purchased from the American Type Culture Collection (ATCC). Raw 264.7 cells (2×10^5 cells/well) were seeded in a 6-well culture dish, and cultured for a day in a Dulbecco's modified Eagle's medium (DMEM) supplemented with 10% fetal bovine serum (FBS). The Raw 264.7 cells were kept at 37° C. in a thermo-hygrostat chamber in which 5% CO2 and 95% air were maintained. After the culturing, the cells were treated with 50 ng/mL of lipopolysaccharides (LPS) and 20 μM JC1-40 for 24 hours. Then, mRNA expression levels of the inflammatory markers, such as TNF-α, NOS2, IL-1β, and IL-6, which induce rheumatoid arthritis, were measured using a real-time PCR (i.e., real-time reverse transcriptase-polymerase chain reaction; quantitative polymerase chain reaction) assay.
# [8] = test system: human peripheral blood mononuclear cells (PBMCs); experiment: Th17 and Treg differentiation of CD4+ cells from PBMCs, flow cytometry; type: cell-based; settings: human CD4+ cells from PBMCs, 10, 20 and 40 μM, Th17 conditions 3 days
# Procedure: CD4+ cells were isolated from peripheral blood mononuclear cells (PBMCs) of a healthy human, pre-treated with a varying concentration (10, 20, and 40 μM) of JC1-40, and then cultured for 3 days under Th17 differentiation conditions (including 0.5 μg/mL of anti-CD3, 0.5 μg/mL of anti-CD28, 10 μg/mL of anti-IFN-γ, 10 μg/mL of anti-IL-4, 20 ng/mL of IL-6, and 20 ng/mL of IL-1β). The expression of Th17 (anti IL-17 PE) and Treg (Anti Foxp3-FITC) in these cells was confirmed using flow cytometry. Also, an amount of IL-17 in these supernatants was measured using ELISA.
# [9] = test system: EL4 cell line; experiment: RORα and IL-17 transcription in T cell line under Th17 differentiation conditions, real-time PCR; type: cell-based, mouse; settings: EL4, 20 μM pre-treatment 24 hours, Th17 differentiation conditions 48 hours
# Procedure: A mouse T cell EL4 cell line (5×10^5 cells/well) was seeded in a 24-well culture dish, pre-treated with 20 μM JC1-40 for 24 hours, and cultured for a day in a RPMI 1640 medium supplemented with 10% FBS. The EL4 cell line was kept at 37° C. in a thermo-hygrostat chamber in which 5% CO2 and 95% air were maintained. After the culturing, the cells were cultured for 48 hours under Th17 differentiation conditions (including 0.5 μg/mL of an anti-CD3 antibody, 1 μg/mL of an anti-CD28 antibody, 2 ng/mL of TGF-β, 20 ng/mL of IL-6, 10 μg/mL of anti-IL-4, and 10 μg/mL of anti-IFN-γ). Expression levels of RORα, which is a JC1-40-activated nuclear receptor, and IL-17, which is an inflammatory marker inducing rheumatoid arthritis, were measured using a real-time PCR (i.e., real-time reverse transcriptase-polymerase chain reaction; quantitative polymerase chain reaction) assay.
# [10] = test system: CD4+ T cells from spleens; experiment: Th17 differentiation of primarily cultured spleen T cells, flow cytometry; type: cell-based; settings: mouse spleen CD4+ T cells, 0.1, 0.5, 10 and 50 μM, Th17 conditions 3 days
# Procedure: (§2) CD4+ T cells were isolated from the spleens of 7 to 8-week-old C57BL/6 male mice, seeded in a 48-well dish at a density of 5×10^5 cells/well, pre-treated with a varying concentration of JC1-40 (0.1, 0.5, 10, and 50 μM) for 24 hours, and then cultured for a day in an RPMI1640 medium supplemented with 10% fetal bovine serum (FBS). After the culturing, the cells were cultured for 3 days under Th17 differentiation conditions (including 0.5 μg/mL of an anti-CD3 antibody, 1 μg/mL of an anti-CD28 antibody, 2 ng/mL of TGF-β, 20 ng/mL of IL-6, 10 μg/mL of anti-IL-4, and 10 μg/mL of anti-IFN-γ). Thereafter, the cells were collected, washed with a FACS buffer for flow cytometry, and then blocked at 4° C. for 15 minutes to inhibit non-specific binding. As a cell surface marker, an antibody against CD4 (anti-CD4-PerCP) was added thereto, and reacted at 4° C. for 30 minutes, and the resulting reaction mixture was washed with a perm wash buffer. After a Cytofix/Cytoperm process was performed at 4° C. for 20 minutes, the mixture was washed with a perm wash buffer. Anti-IL-17 PE was added thereto, and reacted at 4° C. for 30 minutes, and the resulting reaction mixture was washed with a perm wash buffer. A change of the stained cells was analyzed using flow cytometry.
# [11] = test system: CD4+ T cells from spleens; experiment: IL-17 secretion of spleen T cells, sandwich ELISA of culture supernatant; type: cell-based; settings: mouse spleen CD4+ T cells, Th17 conditions
# Procedure: as §2, with “After a Cytofix/Cytoperm process was performed at 4° C. for 20 minutes, the mixture was washed with a perm wash buffer. Anti-IL-17 PE was added thereto, and reacted at 4° C. for 30 minutes, and the resulting reaction mixture was washed with a perm wash buffer.” left out
# In addition, a culture supernatant of the JC1-40-treated Th17 cells was collected to determine an amount of IL-17 using a sandwich ELISA method. […] Then, a PNPP/DEA solution was added thereto, and developed color, and the optical density was then measured at a wavelength of 405 nm.
# [12] = 10 mg/kg orally three times a week
SMILES,mRNA level of IL-1β [2],mRNA level of IL-6 [2],mRNA level of NOS2 [2],mRNA level of TNF-α [2],transcription level of Arg1 [5],transcription level of CD206 [5],transcription level of IL-10 [5],transcription level of Retnla [5],other results
"CNC(=S)NCc1ccc(OCc2ccccc2)cc1 [JC1-40, 1-(4-benzyloxy-benzyl)-3-methyl-thiourea]",reduced,reduced,reduced,reduced,increased,increased,increased,increased,"arthritis incidence [1, 12]: suppressed; arthritis scores [1, 12]: suppressed; effect compared to Enbrel (positive control) ([1]; 10 mg/kg orally vs 5 mg/kg Enbrel): superior effect; expression level of Foxp3 [3]: increased; expression of osteoclast differentiation-related factors (Cathepsin K and TRAP mRNA) [4]: significantly reduced; M1 differentiation (CD80 marker) [6]: suppressed; transcription level of IL-1β [7]: reduced; transcription level of IL-6 [7]: reduced; transcription level of NOS2 [7]: reduced; transcription level of TNF-α [7]: reduced; amount of (FOXP3 positive) cells differentiated into Treg [8]: increased; amount of (IL-17 positive) T cells differentiated into Th17 [8]: decreased; transcription level of IL-17 [9]: decreased; transcription level of the nuclear receptor RORα [9]: increased; amount of IL-17 positive cells differentiated into Th17 [10]: decreased; amount of secreted IL-17 protein in the culture broth [11]: reduced"
"CNC(=S)NCc1ccc(Oc2ccccc2)cc1 [JC1-42, 1-(4-phenoxy-benzyl)-3-methyl-thiourea]",reduced,reduced,reduced,reduced,increased,increased,increased,increased,–
